According to PMC2862721, “The Tegument of the Human Parasitic Worm Schistosoma mansoni as an Excretory Organ: The Surface Aquaporin SmAQP Is a Lactate Transporter” (PLoS ONE, 2010):

T1: SmAQP (Schistosoma mansoni, UniProt C4PYI6)
T1 construct: gene AQP1; 304 aa membrane protein
T1 sequence (C4PYI6 1-304): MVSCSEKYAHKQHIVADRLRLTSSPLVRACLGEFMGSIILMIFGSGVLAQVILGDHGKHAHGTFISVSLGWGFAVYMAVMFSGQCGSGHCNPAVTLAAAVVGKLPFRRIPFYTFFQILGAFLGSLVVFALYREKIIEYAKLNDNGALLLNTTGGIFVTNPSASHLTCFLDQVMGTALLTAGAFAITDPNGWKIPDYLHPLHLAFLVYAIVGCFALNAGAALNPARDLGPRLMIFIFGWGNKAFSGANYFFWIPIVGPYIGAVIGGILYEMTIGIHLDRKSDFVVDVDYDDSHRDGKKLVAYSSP

B1: SmAQP (Schistosoma mansoni) (protein)
chain: T1 sequence (C4PYI6 1-304)
notes: 304 aa membrane protein

How the values were obtained:
SmAQP = target: T1, SmAQP; assay: inhibition of radiolabelled lactate uptake in Xenopus oocytes, variable-slope fit; format: cell-based; conditions: read-out: Ki (half maximal inhibitory concentration); Ki50
[1] = substrate: C[C@H](O)C(=O)O; assay: cells, lysate or membranes; format: cell-based, Schistosoma mansoni; conditions: 0.1-100 mM lactate; labelled compound; non-injected oocyte values subtracted

Row | Molecule | IC50 (SmAQP) [µM] | Km [1] [mM]
1 | O=C(CCc1ccc(O)cc1)c1c(O)cc(O)cc1O [phloretin] | 22 | 
2 | B1 |  | 41 ± 5.8
